Experimental data reported in patent US20100204153A1, “USE OF BAND 3 PROTEIN (824-829) AND/OR MELANOCYTE-STIMULATING HORMONE RELEASE-INHIBITING FACTOR AS A THERAPEUTIC AGENT IN THE TREATMENT OF PSEUDOMONAS AERUGINOSA INFECTION” (priority 2007, published 2010).
Where no end group is shown, it is not given here.

Tests used:
HIV-1IIIB = assay: HIV-1 antiviral assay in CEM-SS cells
HCMV strain AD169 = assay: HCMV plaque formation assay in MRC-5 cells; type: cell-based; settings: for inhibition of HCMV plaque formation as compared to the virus control experiment: 10 micrograms per ml, 7-10 days
Pseudomonas aeruginosa = Pseudomonas aeruginosa assay; type: cell-based; settings: 10 micrograms per ml; 5×10^5 CFU/mL; combination 0.95:1.05 mole and all other molar ratios from 1:100 to 100:1
[1] = tested on: hepatitis B virus (HBV) ayw strain; assay: HBV assay in HepG2-2.2.15 cells (TaqMan PCR of secreted HBV DNA); type: cell-based; settings: 10 micrograms per ml; six days
murine spleen cells = assay: Th1/Th2 cytokine profiling assay; type: cell-based, Balb/c mice; settings: 10 micrograms per ml; Ovalbumin restimulation, 72 hours; combination 0.95:1.05 mole
[2] = tested on: Primary Human endothelial cells (HUVEC); assay: Endothelial cell migration assay; type: cell-based; settings: 10 micrograms per ml; 22 hours
Experimental: Thereafter, designated concentration of testing peptides—10 micrograms per ml—was added in duplicate wells.

HUVEC = assay: Endothelial tube formation assay; type: cell-based, human; settings: 10 micrograms per ml; 20 hours
From the text: Positive control was vehicle only.

Molecule	antiviral activity of positive control compounds (HIV-1) (HIV-1IIIB)	antiviral activity of positive control compound (HCMV) (HCMV strain AD169; positive control compound)	inhibition of the growth of Pseudomonas aeruginosa (Pseudomonas aeruginosa) [%]	inhibition of HBV replication as compared to the virus control infection [1]	change of the production of IFN-γ (murine spleen cells)	change of the production of TNF-alpha (murine spleen cells)	decrease of the production of IL-2 (murine spleen cells) [%]	decrease of the production of IL-4 (murine spleen cells) [%]	decrease of the production of IL-5 (murine spleen cells) [%]	induction of the migration of endothelial cells [2] [%]	inhibition of the tube formation of human endothelial cells (HUVEC) [%]	inhibition of HCMV plaque formation as compared to the virus control experiment (HCMV strain AD169)	inhibition of the migration of human endothelial cells [2] [%]
Cc1cn([C@H]2C[C@H](N=[N+]=[N-])[C@@H](CO)O2)c(=O)[nH]c1=O [AZT]	expected levels of antiviral activity	–	–	–	–	–	–	–	–	–	–	–	–
Nc1nc(O)c2ncn(COC(CO)CO)c2n1 [Ganciclovir, reference compound]	–	expected levels of antiviral activity	–	–	–	–	–	–	–	–	–	–	–
CC(C)(C)NC(=O)[C@@H]1CN(Cc2cccnc2)CCN1C[C@@H](O)C[C@@H](Cc1ccccc1)C(=O)N[C@H]1c2ccccc2C[C@H]1O [indinavir]	expected levels of antiviral activity	–	–	–	–	–	–	–	–	–	–	–	–
Pro-Leu-Gly-NH2 [Peptide 2]	–	–	100	10.9%	did not significantly change	did not significantly change	100	100	42.3	8	16	did not inhibit	–
Tyr-Val-Lys-Arg-Val-Lys-OH (YVKRVK-OH) [Peptide 1]	–	–	100	did not inhibit	did not significantly change	did not significantly change	41.9	58.2	37.4	–	21	did not inhibit	8
